Measurements as given in US6846807B1, “Colorectal neoplasia prophylaxis” (Board of Regents, The University of Texas System, priority 2003, dated 2005).

How the values were obtained:
[1] = tested on: cultured human endothelial cells; conditions: cited from earlier work
[2] = tested on: chick embryo chorioallantoic membranes (CAM); conditions: cited from earlier work
phospholipase C (PLC) = conditions: cited from earlier work
Smad3 mutant mice = assay: Colorectal tumor development in Smad3 mutant mice given antibiotics in drinking water; assay type: in vivo
Procedure: I. Orally-delivered aminoglycosides reduce development of colon cancer in animal models predisposed to colon neoplasia. Smad3 mutant and APC/MIN mice are fed on a standard laboratory diet, with aminoglycoside antibiotics added to the water. […] Metronidazole was diluted in sterile drinking water to a final concentration of 0.5 mg/ml. The same concentrations are used for either combined or separate drug trials.
Smad3 mutant mice are maintained in 129Sv strain; APC/MIN mice are maintained in C57BL/6J. Both Smad3 mutant and APC/MIN mice are started on antibiotics at 5 weeks of age (range: 4-6 weeks). Mice are monitored and scored for survival and visible rectal tumors. Mice are sacrificed when showing severe distress (typically rectal prolapse with significant dehydration,. hypokinesis, cachexia). At sacrifice mice are dissected and their overall state assessed. Large intestines were harvested, opened longitudinally, and tumor number, location, and size recorded.

colorectal polyps = assay: Double-blind, placebo-controlled study of colorectal polyps in patients with familial adenomatous polyposis; assay type: in vivo, human; conditions: 1 or 2 g/day orally, after six months, change from base line
Procedure: II. […] All patients undergo endoscopy at the beginning and end of the study. The number and size of polyps is determined from photographs and videotapes; the response to treatment is expressed as the mean percent change from base line.

colorectal adenomas = assay: Double-blind, placebo-controlled trial of colorectal adenomas in patients with previous colorectal cancer; assay type: in vivo, human; conditions: daily use of 1 or 2 g, patients with a history of colorectal cancer
Source text: III. Orally-delivered aminoglycosides reduce development of colorectal adenomas in patients with previous colorectal cancer. […] We determine the proportion of patients with adenomas, the number of recurrent adenomas, and the time to the development of adenoma between randomization and subsequent colonoscopic examinations. Relative risks are adjusted for age, sex, cancer stage, the number of colonoscopic examinations, and the time to first colonoscopy.

[3] = tested on: cultured angiogenin-secreting tumor cells; conditions: injected, mice; cited from earlier work
[4] = tested on: azoxymethane (AOM) and 1,2-dimethyl hydrazine (DMH)-induced colon cancers; conditions: AOM and DMH chemical carcinogenesis models; cited from earlier work

## COc1ccc2c(c1)CC[C@@H]1[C@@H]2CC[C@]2(C)[C@@H](NCCCCCCN3C(=O)C=CC3=O)CC[C@@H]12 [U-73122]
[1]
  angiogenin-induced cell proliferation: similarly inhibited angiogenin-induced cell proliferation and angiogenesis
[2]
  angiogenin-induced angiogenesis / anti-angiogenic activity: similarly inhibited angiogenin-induced cell proliferation and angiogenesis
Phospholipase C (PLC)
  PLC inhibition: PLC inhibitor

## NCC[C@H](O)C(=O)N[C@@H]1C[C@H](N)[C@@H](O[C@H]2O[C@H](CN)[C@@H](O)[C@H](O)[C@H]2O)[C@H](O)[C@H]1O[C@H]1O[C@H](CO)[C@@H](O)[C@H](N)[C@H]1O [amikacin]
[2]
  angiogenin-induced angiogenesis / anti-angiogenic activity: lack anti-angiogenic activity

## Cc1ncc([N+](=O)[O-])n1CCO [metronidazole]
Smad3 mutant mice; 0.5 mg/ml in drinking water
  tumor development compared with non-treated controls: not significantly different from non-treated controls

## NC[C@@H]1O[C@H](O[C@H]2[C@@H](O)[C@H](O[C@@H]3[C@@H](O)[C@H](N)C[C@H](N)[C@H]3O[C@H]3O[C@H](CO)[C@@H](O)[C@H](O)[C@H]3N)O[C@@H]2CO)[C@H](N)[C@@H](O)[C@@H]1O [paromomycin]
Colorectal polyps
  reduction in the mean number of colorectal polyps: ~30%
  reduction in the polyp burden (the sum of polyp diameters): ~30%
Colorectal adenomas
  occurrence of new colorectal adenomas: decreases the occurrence of new colorectal adenomas
[2]
  angiogenin-induced angiogenesis / anti-angiogenic activity: lack anti-angiogenic activity

## [H]/N=C(/N)N[C@H]1[C@H](O)[C@@H](O)[C@H](O[C@@H]2O[C@@H](C)[C@](O)(C=O)[C@H]2O[C@@H]2O[C@@H](CO)[C@H](O)[C@@H](O)[C@@H]2NC)[C@@H](N/C(N)=N\[H])[C@@H]1O [streptomycin]
[2]
  angiogenin-induced angiogenesis / anti-angiogenic activity: lack anti-angiogenic activity

## gentamicin
[2]
  angiogenin-induced angiogenesis / anti-angiogenic activity: lack anti-angiogenic activity

## neomycin
Smad3 mutant mice; oral treatment, at 24 weeks, 9 of 10 untreated mice developed colorectal tumors
  mice in which development of tumors was prevented: 11 of 12
Colorectal polyps
  reduction in the mean number of colorectal polyps: ~30%
  reduction in the polyp burden (the sum of polyp diameters): ~30%
Colorectal adenomas
  occurrence of new colorectal adenomas: decreases the occurrence of new colorectal adenomas
[1]
  angiogenin-induced cell proliferation: able to reduce angiogenin-induced cell proliferation and angiogenesis
[2]
  angiogenin-induced angiogenesis / anti-angiogenic activity: able to reduce angiogenin-induced cell proliferation and angiogenesis
Phospholipase C (PLC)
  PLC inhibition: inhibits PLC
[3]
  growth of transplanted angiogenin-secreting tumor cells: able to reduce growth
[4]
  incidence of colon adenocarcinomas: may actually increase the incidence of colon adenocarcinomas
